How the values were obtained:
[1] = human, in vivo, po; cited from earlier work
[2] = rat, in vivo, po, 30 mg/kg; cited from earlier work
[3] = in vivo, cited from earlier work
[4] = tested on: individual recombinant human P450 enzymes

Compound	formation of G3 from the analogue, versus capsaicin (human liver microsomes)	formation of conjugates equivalent to G1/G2 from the analogue, versus capsaicin (human liver microsomes)	also measured
COc1cc(CNC(=O)CCCC/C=C/C(C)C)ccc1O [Capsaicin, trans-8-methyl-N-vanillyl-6-nonenamide]			AUC [1]: ~ 1.7 ng*h/mL; T1/2 [1]: 0.42 h; Tmax [1]: ~ 0.78 h; absorption from the intestine [2]: 94%; amount found in intestine [2]: ~ 1,060 mg/tissue; amount found in kidney [2]: ~ 7 mg/tissue; amount found in liver [2]: ~ 45 mg/tissue; peak serum concentration [2]: 6.2 µM; estimated T1/2 ([3]; human): 1.6 h; time within which capsaicin was cleared in most patients [3]: ≤ 4.5 h
COc1cc(CNC(=O)CCCC/C=C/C(C)C)cc(-c2cc(CNC(=O)CCCC/C=C/C(C)C)cc(OC)c2O)c1O [Dimer, 5,5’-Dicapsaicin]			P450 enzymes producing the conjugate/dimer from capsaicin [4]: CYP2D6, 2C9, and 2C8
CCCCCCCCC(=O)NCc1ccc(O)c(O)c1 [N-(3,4-dihydroxybenzyl)nonanamide]	absent		
CCCCCCCCC(=O)NCc1ccc(OC)c(OC)c1 [N-(3,4-dimethoxybenzyl)nonanamide]	absent	diminished	
CCCCCCCCC(=O)NCc1ccc(OC)c(O)c1 [N-(3-hydroxy-4-methoxybenzyl)nonanamide]	absent	unchanged	
CCCCCCCCC(=O)NCc1cccc(OC)c1 [N-(3-methoxybenzyl)nonanamide]	absent	diminished	
CCCCCCCCC(=O)NCc1ccc(O)cc1 [N-(4-hydroxybenzyl)nonanamide]	greater	increased	
CCCCCCCCC(=O)NCc1ccccc1 [N-benzylnonanamide]	absent	diminished	
CCCCCCCCC(=O)NCc1ccc(O)c(OC)c1 [nonivamide, N-vanillylnonanamide]	comparable to capsaicin	unchanged	G4 and G5 formation from the analogue (human liver microsomes): roughly equivalent to capsaicin

— article PMC3610763 (Chemical research in toxicology, 2012)
